Values of other authors in patent US20180168955A1, “IODINE-CONTAINING ORAL CARE COMPOSITIONS” (priority 2016, published 2018).

II [iodine]
volume of alcohol in which one gram of iodine dissolves (solvent alcohol): 12.5 mL
volume of water in which one gram of iodine dissolves (solvent water): 2950 mL
